Assay results taken from patent US20110306554A1, “PEPTIDE CAPABLE OF BINDING TO IMMUNOGLOBULIN” (priority 2009, published 2011).
“Also recorded” adds a separate entry of the source. Non-standard residues stand in square brackets, D forms with d. No end group written: not given here.

Columns and labels:
[1] = tested on: Cy3-labeled goat anti-mouse immunoglobulin (IgG); test: Peptide array of C1q subunit 15-mers probed with Cy3-labeled immunoglobulin; assay type: binding; details: peptide spots on glass array, 4° C., 12 hours, background fluorescence intensity is 2.6
Description: The amino acid sequences of the A, B, and C subunit chains of human C1q, are shown in SEQ ID NOs: 17 to 19, and the nucleotide sequences in SEQ ID NOs: 20 to 22. Based on each of the amino acid sequences, sequences having 15 amino acids (residues) from each subunit and shifted at intervals of three amino acids, were synthesized on a glass array as synthetic peptides (Peptide Nos. 1 to […], and 193 to 270 for the A, B, and C chains, respectively). The synthesis of each peptide was carried out at a specific location on the array, so as to prepare a peptide array which included the synthetic peptides covering the entire amino acid sequences of the subunits of C1q. The preparation of the array was outsourced to JPT Peptide Technologies GmbH.
To the peptide array was applied 330 μl of an Cy3-labeled goat anti-mouse immunoglobulin (IgG) (1 mg/ml; Zymed Laboratories) diluted 1000-fold with PBS (10 mM phosphate buffer, pH 7.0, 0.1 M NaCl), and the array was sealed and then incubated at 4° C. for 12 hours. After that, the array was washed once with methanol and then 5 times with Milli-Q water for 5 minutes each. The array slide was centrifuged and dried, and scanned with a fluorescence scanner (Agilent DNA microarray scanner; Agilent Technologies), so that fluorescence intensity was quantified at the respective peptide spots on the array using a software (Feature Extraction software; Agilent Technologies). Several spots displaying strong fluorescence intensities were detected. […] Note that in the description, the amino acids are denoted by the one-letter code known in the art.

[2] = tested on: Monoclonal antibody cocktail-induced arthritis mice; test: Arthritis suppressing effects on arthritis-induced mice, Part 2; assay type: in vivo; details: 10 mg/kg intraperitoneal twice a day, 14 consecutive days from day 0
Description: Monoclonal antibody cocktail-induced arthritis mice were used to examine arthritis suppressing effects of peptides which are indicated as R1, R2, and R5 in Example 2. Arthritis was caused by intravenous administration of 2 mg/mouse of an arthritis-inducing monoclonal antibody cocktail and three days later, intraperitoneal administration of 50 μg/mouse of LPS. The peptides were administered at a dose of 10 mg/kg twice a day for a period of 14 consecutive days from the day of administration of the arthritis-inducing monoclonal antibody cocktail (day 0), and arthritis suppressing effect was examined in terms of clinical score. Experiments were carried out in a similar way to those in the section (1) in Example 3.
The required amount was calculated for each peptide, based on the animal weight. Each peptide solution was prepared to make a concentration of 1 mg/ml in a 0.5% methyl cellulose solution, and the prepared peptide solution was cold stored.
Measurement of body weight of animals was made on days 0, 3, 6, 9, 12, and 14 during the study period, with day 0 being the day of administration of the arthritis-inducing monoclonal antibody cocktail. Observation of general condition was made on a daily basis.
Mice were weighed on the day prior to start of administration and randomly assigned to groups using a grouping software, so that the average body weight values of the groups were approximately equal. To twenty 7-week-old mice, the arthritis-inducing monoclonal antibody cocktail was intravenously administered at a dose of 2 mg/mouse on day 0, and LPS was intraperitoneally administered at a dose of 50 μg/mouse on day 3.
Each peptide solution was given via intraperitoneal administration twice a day, morning and afternoon, from day 0. As a control, a 0.5% solution of methyl cellulose was intraperitoneally administered twice a day from day 0. A needle (26G; Terumo) and a syringe (1.0-ml capacity; Terumo) were used for administration. […]
Results of examinations were expressed by mean value±standard error and analyzed using EXSAS (Version 7.1.6, Arm Systex Co., Ltd.). […]

[3] = tested on: type III allergic (Arthus) reaction-induced rats; test: Immune-complex disease suppression in type III allergic (Arthus) reaction-induced rats, Part 1; assay type: in vivo
Description: Using sixty-four 7-week-old male Slc:Wistar rats, examinations were made on peptides R1, R2, and R5, in two series of examinations, each using a different method of administration (intraperitoneal administration and tail vein administration). Acclimation was carried out by giving normal solid chow CRF-1 for a period of 9 days or longer. The back of the animals was shaved on the day prior to administration, and a mixed solution of OVA and Evans blue dye was administered into the tail vein on the day of administration. Each peptide solution was administered intraperitoneally or into the tail vein 30 minutes or 50 minutes after the administration of the mixed solution of OVA and Evans blue dye, respectively. For intracutaneous administration of an anti-OVA solution, […] was intracutaneously administered in the back of animals at a dose of 0.1 ml/site 30 minutes or 10 minutes after the administration of the tested substance in the case of intraperitoneal or intravenous administration, respectively, so as to generate a local Arthus reaction. After the reaction was allowed to be generated for 4 hours, the animals were euthanized, the blood was removed thoroughly, and then the dorsal skin was exfoliated. The Arthus reaction sites on the exfoliated skin were punched out, and the Evans blue dye was extracted from the punched skin overnight. The amount of dye leakage was quantified by measuring absorbance for the Evans blue dye with a spectrophotometer and using a calibration curve (see, H. Okamoto, Y. Iwahisa, and M. Terasawa, “Suppression of the Arthus reaction by Y-24180, a potent and specific antagonist of platelet-activating factor”, Agents Actions, 35:149-158 (1992), for experimental procedures used in Example 4).
A predetermined amount of each peptide (peptides R1, R2, and R5) was dissolved in physiological saline to make a 20 mg/ml solution. A 2 mg/ml solution was prepared by diluting the 20 mg/ml solution 10-fold with physiological saline. A 5 mg/ml solution was prepared by dissolving each peptide in a predetermined amount in physiological saline to make a prepared solution.
A mixed solution of OVA and Evans blue dye was administered into the tail vein at a dose of 2 ml/kg. Each peptide solution was administered intraperitoneally or into the tail vein 30 minutes or 50 minutes after the administration of the mixed solution of OVA and Evans blue dye, respectively. For intracutaneous administration of an anti-OVA solution, […] was intracutaneously administered in the back of animals at a dose of 0.1 mL/site 30 minutes or 10 minutes after the administration of the tested substance in the case of intraperitoneal or intravenous administration, respectively, so as to generate a local Arthus reaction. Intracutaneous administration was conducted at 2 sites for PBS and at 2 sites for the anti-OVA solution per animal. After the reaction was allowed to be generated for 4 hours, the animals were euthanized by decapitation under ether anesthesia, the blood was removed thoroughly, and then the dorsal skin was exfoliated. The Arthus reaction sites on the exfoliated skin were punched out and subjected to dye extraction.
Several cuttings were made in the skin strips that were punched out with a punch. […] The amount of dye leakage was calculated from a calibration curve of known amounts of the dye.
The mean value (mean)±standard deviation (SD) for each group was calculated with body-weight measurements and amounts of dye leakage. […]

[4] = tested on: Monoclonal antibody cocktail-induced arthritis mice; test: Arthritis suppressing effects on arthritis-induced mice, Part 4; assay type: in vivo; details: intraperitoneal 100 mg/kg once a day from day 4; methotrexate 0.1 mg/kg
Description: Monoclonal antibody cocktail-induced arthritis mice were used to examine arthritis suppressing effects of peptides which are indicated as R13 in the section (3) in Example 2 and as R19 and R21 in the section (4) in Example 2. Arthritis was caused by intravenous administration of 2 mg/mouse of an arthritis-inducing monoclonal antibody cocktail and three days later, intraperitoneal administration of 50 μg/mouse of LPS. The peptides […] days from four days after the administration of the arthritis-inducing monoclonal antibody cocktail, and arthritis suppressing effect was examined in terms of clinical score and hind-limb volume determination.
The required amount was calculated for each peptide, based on the animal weight. […]
Measurement of body weight of animals was made on days 0, 3, 6, 9, 12, and 14 during the study period, with day 0 being the day of administration of the arthritis-inducing monoclonal antibody cocktail. Observation of general condition was made on a daily basis. […]
Results of examinations were expressed by mean value±standard error and analyzed using EXSAS (Version 7.1.6, Arm Systex Co., Ltd.). […] Quantitative data, such as body weights and leg volumes, were subjected to Bartlett's test, followed by Dunnett's multiple comparison test when the variance was uniform or Steel's multiple comparison test when the variance was not uniform.

[5] = target: Cy3-labeled goat anti-mouse immunoglobulin (IgG) (goat); test: peptide array on glass, Cy3-labelled goat anti-mouse IgG, fluorescence scanner; background 2.6
[6] = intraperitoneal administration, 10 or 100 mg/kg
[7] = tail vein administration, 10 mg/kg

Row | Fluorescence intensity [5] | Molecule | Fluorescence intensity [1] | also measured
1 |  | SGKFTCKVPGLYYFT (Immunoglobulin binding peptide) [R3] | 65,300 | 
2 |  | PGLYYF (Immunoglobulin binding peptide) [R1] |  | arthritis suppressing effect (clinical score) [2]: Arthritis suppressing effects were observed; also recorded: arthritis was suppressed; effect of immune-complex disease suppression (dye leakage) [3, 6]: clear and satisfactory effects of immune-complex disease suppression; also recorded: suppressed; effect of immune-complex disease suppression (dye leakage) [3, 7]: clear and satisfactory effects of immune-complex disease suppression; also recorded: suppressed
3 |  | dSdTGdKdFdTdSdKdVdPGdLdYdYdF ([dS][dT]G[dK][dF][dT][dS][dK][dV][dP]G[dL][dY][dY][dF]) [R21] |  | arthritis-suppressing effect (clinical score) compared with methotrexate [4]: arthritis-suppressing effect comparable to or greater than that of methotrexate
4 |  | KFTCKVPGLYYFVYH (Immunoglobulin binding peptide) [compound 245] | 65,311 | 
5 |  | CKVPGLYYF (Immunoglobulin binding peptide) [R2] |  | arthritis suppressing effect (clinical score) [2]: Arthritis suppressing effects were observed; also recorded: arthritis was suppressed; effect of immune-complex disease suppression (dye leakage) [3, 6]: clear and satisfactory effects of immune-complex disease suppression; also recorded: suppressed; effect of immune-complex disease suppression (dye leakage) [3, 7]: clear and satisfactory effects of immune-complex disease suppression; also recorded: suppressed
6 |  | FTCKVPGLYYFTYHA (Immunoglobulin binding peptide) [R4] | 65,311 | 
7 |  | CKVPGLYYFVYHASH (Immunoglobulin binding peptide) [R6] | 65,313 | 
8 | 65300 | CKVPGLYYFVYHASH [peptide R6 (…)] |  | 
9 | 65300 | STGKFTCKVPGLYYF [peptide R5 (…)] |  | 
10 | 65300 | KFTCKVPGLYYFVYH [Peptide No. 245 (…)] |  | 
11 | 65300 | SGKFTCKVPGLYYFT [peptide R3 (…)] |  | 
12 | 65300 | FTCKVPGLYYFTYHA [peptide R4 (…)] |  | 
